Measured values reported in ChEMBL document CHEMBL4229518, “New β-lactam - Tetramic acid hybrids show promising antibacterial activities” (Bioorg Med Chem Lett, 2018).
≈ marks a conversion by molar mass, not a printed value. Calls of active or inactive are those of the source. No cut-off for these calls is given here.

Legend:
Escherichia coli [1] = assay: Antimicrobial activity against Escherichia coli isolate SJ 4 after 18 to 20 hrs by microbroth dilution method; assay type: functional
Escherichia coli [2] = assay: Antimicrobial activity against Escherichia coli isolate SJ 1 after 18 to 20 hrs by microbroth dilution method; assay type: functional
Klebsiella pneumoniae [3] = assay: Antimicrobial activity against Klebsiella pneumoniae isolate SJ 4 after 18 to 20 hrs by microbroth dilution method; assay type: functional
Escherichia coli [4] = assay: Antimicrobial activity against Escherichia coli ATCC 25922 after 18 to 20 hrs by microbroth dilution method; assay type: functional
Escherichia coli [5] = assay: Antimicrobial activity against Escherichia coli isolate SJ 2 after 18 to 20 hrs by microbroth dilution method; assay type: functional
Acinetobacter baumannii = assay: Antimicrobial activity against Acinetobacter baumannii ATCC 19606 after 18 to 20 hrs by microbroth dilution method; assay type: functional; details: ATCC 19606 = CIP 70.34 = JCM 6841
Klebsiella pneumoniae [6] = assay: Antimicrobial activity against Klebsiella pneumoniae ATCC 33495 after 18 to 20 hrs by microbroth dilution method; assay type: functional
Klebsiella pneumoniae [7] = assay: Antimicrobial activity against Klebsiella pneumoniae isolate SJ 3 after 18 to 20 hrs by microbroth dilution method; assay type: functional
Escherichia coli [8] = assay: Antimicrobial activity against Escherichia coli isolate SJ 6 after 18 to 20 hrs by microbroth dilution method; assay type: functional
Escherichia coli [9] = assay: Antimicrobial activity against Escherichia coli isolate SJ 3 after 18 to 20 hrs by microbroth dilution method; assay type: functional
Escherichia coli [10] = assay: Antimicrobial activity against tolC deficient Escherichia coli JW5503-1 after 18 to 20 hrs by microbroth dilution method; assay type: functional
Pseudomonas aeruginosa = assay: Antimicrobial activity against Pseudomonas aeruginosa PAO1 after 18 to 20 hrs by microbroth dilution method; assay type: functional
Proteus mirabilis = assay: Antimicrobial activity against Proteus mirabilis ATCC 25933 after 18 to 20 hrs by microbroth dilution method; assay type: functional
Klebsiella pneumoniae [11] = assay: Antimicrobial activity against Klebsiella pneumoniae isolate SJ 2 after 18 to 20 hrs by microbroth dilution method; assay type: functional
Klebsiella pneumoniae [12] = assay: Antimicrobial activity against Klebsiella pneumoniae isolate SJ 5 after 18 to 20 hrs by microbroth dilution method; assay type: functional
Escherichia coli [13] = assay: Antimicrobial activity against Escherichia coli ATCC 35218 expressing TEM-1 beta lactamases after 18 to 20 hrs by microbroth dilution method; assay type: functional
Klebsiella pneumoniae [14] = assay: Antimicrobial activity against Klebsiella pneumoniae isolate SJ 1 after 18 to 20 hrs by microbroth dilution method; assay type: functional
Escherichia coli [15] = assay: Antimicrobial activity against Escherichia coli isolate SJ 5 after 18 to 20 hrs by microbroth dilution method; assay type: functional
Escherichia coli [16] = assay: Antimicrobial activity against Escherichia coli BW25113 after 18 to 20 hrs by microbroth dilution method; assay type: functional
Escherichia coli [17] = assay: Induction of proton motive force collapse in Escherichia coli BW25113 at 100 uM by flow cytometry; assay type: functional, organism-based
Bacillus anthracis = assay: Antimicrobial activity against Bacillus anthracis Sterne 34F2 after 18 to 20 hrs by microbroth dilution method; assay type: functional
Enterococcus faecalis = assay: Antimicrobial activity against Enterococcus faecalis ATCC 33186 after 18 to 20 hrs by microbroth dilution method; assay type: functional
Bacillus cereus = assay: Antimicrobial activity against Bacillus cereus ATCC 14579 after 18 to 20 hrs by microbroth dilution method; assay type: functional
Bacillus subtilis = assay: Antimicrobial activity against Bacillus subtilis ATCC 23857 after 18 to 20 hrs by microbroth dilution method; assay type: functional
[18] = tested on: Stenotrophomonas maltophilia; assay: Antimicrobial activity against Stenotrophomonas maltophilia ATCC 700475 after 18 to 20 hrs by microbroth dilution method; assay type: functional
Staphylococcus aureus [19] = assay: Antimicrobial activity against methicillin-susceptible Staphylococcus aureus ATCC 29213 after 18 to 20 hrs by microbroth dilution method; assay type: functional
Staphylococcus aureus [20] = assay: Antimicrobial activity against methicillin-susceptible Staphylococcus aureus NRS70 after 18 to 20 hrs by microbroth dilution method; assay type: functional
Streptococcus pneumoniae = assay: Antimicrobial activity against Streptococcus pneumoniae R6 after 18 to 20 hrs by microbroth dilution method; assay type: functional
Enterobacter cloacae = assay: Antimicrobial activity against Enterobacter cloacae ATCC 13047 after 18 to 20 hrs by microbroth dilution method; assay type: functional; details: subsp. cloacae ATCC 13047
Streptococcus pyogenes = assay: Antimicrobial activity against Streptococcus pyogenes ATCC 700294 after 18 to 20 hrs by microbroth dilution method; assay type: functional; details: M1 GAS

Row | Structure (SMILES) | MIC (Escherichia coli [1]) | MIC (Escherichia coli [2]) | MIC (Klebsiella pneumoniae [3]) | MIC (Escherichia coli [4]) | MIC (Acinetobacter baumannii) | MIC (Klebsiella pneumoniae [6]) | MIC (Escherichia coli [10]) | MIC (Pseudomonas aeruginosa) | MIC (Proteus mirabilis) | MIC (Escherichia coli [16]) | MIC (Bacillus anthracis) | MIC (Enterococcus faecalis) | MIC (Bacillus cereus) | MIC (Bacillus subtilis) | MIC [18] | MIC (Staphylococcus aureus [19]) | MIC (Staphylococcus aureus [20]) | MIC (Streptococcus pneumoniae) | MIC (Enterobacter cloacae) | MIC (Streptococcus pyogenes) | other results
1 | CO[C@@]1(NC(=O)C2SC(=C(C(N)=O)C(=O)O)S2)C(=O)N2C(C(=O)O)=C(CSc3nnnn3C)CS[C@@H]21 (some centres not stated) [CEFOTETAN] | 1.56 µg/mL (≈ 2.71 µM) | 0.39 µg/mL (≈ 0.678 µM) | 0.39 µg/mL (≈ 0.678 µM) | 1.56 µg/mL (≈ 2.71 µM) | 100 µg/mL (≈ 174 µM) | < 0.2 µg/mL | 1.56 µg/mL (≈ 2.71 µM) | > 200 µg/mL | < 0.2 µg/mL | 25 µg/mL (≈ 43.4 µM) | – | – | – | – | – | – | – | – | – | – | MIC (Escherichia coli [5]): 1.56 µg/mL (≈ 2.71 µM); MIC (Klebsiella pneumoniae [7]): 0.39 µg/mL (≈ 0.678 µM); MIC (Escherichia coli [8]): 25 µg/mL (≈ 43.4 µM); MIC (Escherichia coli [9]): 0.78 µg/mL (≈ 1.36 µM); MIC (Klebsiella pneumoniae [11]): < 0.2 µg/mL; MIC (Klebsiella pneumoniae [12]): 1.56 µg/mL (≈ 2.71 µM); MIC (Escherichia coli [13]): < 0.2 µg/mL; MIC (Klebsiella pneumoniae [14]): < 0.2 µg/mL; MIC (Escherichia coli [15]): 12.5 µg/mL (≈ 21.7 µM)
2 | CO[C@@]1(NC(=O)CCCC(=O)C2=C(O)[C@@H](CCC(=O)O)NC2=O)C(=O)N2C(C(=O)O)=C(CSc3nnnn3C)CS[C@@H]21 | > 200 µg/mL | 200 µg/mL (≈ 320 µM) | 100 µg/mL (≈ 160 µM) | 200 µg/mL (≈ 320 µM) | > 200 µg/mL | 200 µg/mL (≈ 320 µM) | 200 µg/mL (≈ 320 µM) | > 200 µg/mL | 50 µg/mL (≈ 79.9 µM) | 200 µg/mL (≈ 320 µM) | – | – | – | – | – | – | – | – | – | – | MIC (Escherichia coli [5]): 200 µg/mL (≈ 320 µM); MIC (Klebsiella pneumoniae [7]): 200 µg/mL (≈ 320 µM); MIC (Escherichia coli [8]): > 200 µg/mL; MIC (Escherichia coli [9]): 200 µg/mL (≈ 320 µM); Activity (Escherichia coli [17]): inactive; MIC (Klebsiella pneumoniae [11]): 25 µg/mL (≈ 40 µM); MIC (Klebsiella pneumoniae [12]): > 200 µg/mL; MIC (Escherichia coli [13]): 50 µg/mL (≈ 79.9 µM); MIC (Klebsiella pneumoniae [14]): 100 µg/mL (≈ 160 µM); MIC (Escherichia coli [15]): > 200 µg/mL
3 | N[C@@H](C(=O)N[C@@H]1C(=O)N2C(C(=O)O)=C(Cl)CS[C@H]12)c1ccccc1 [CEFACLOR ANHYDROUS] | > 200 µg/mL | 50 µg/mL (≈ 136 µM) | 1.56 µg/mL (≈ 4.24 µM) | 12.5 µg/mL (≈ 34 µM) | 200 µg/mL (≈ 544 µM) | 1.56 µg/mL (≈ 4.24 µM) | 6.25 µg/mL (≈ 17 µM) | > 200 µg/mL | 3.13 µg/mL (≈ 8.51 µM) | 6.25 µg/mL (≈ 17 µM) | 0.39 µg/mL (≈ 1.06 µM) | 25 µg/mL (≈ 68 µM) | > 200 µg/mL | < 0.2 µg/mL | > 200 µg/mL | 1.56 µg/mL (≈ 4.24 µM) | 100 µg/mL (≈ 272 µM) | 0.78 µg/mL (≈ 2.12 µM) | > 200 µg/mL | 0.39 µg/mL (≈ 1.06 µM) | MIC (Escherichia coli [5]): 200 µg/mL (≈ 544 µM); MIC (Klebsiella pneumoniae [7]): 1.56 µg/mL (≈ 4.24 µM); MIC (Escherichia coli [8]): > 200 µg/mL; MIC (Escherichia coli [9]): 12.5 µg/mL (≈ 34 µM); MIC (Klebsiella pneumoniae [11]): 1.56 µg/mL (≈ 4.24 µM); MIC (Klebsiella pneumoniae [12]): > 200 µg/mL; MIC (Escherichia coli [13]): 50 µg/mL (≈ 136 µM); MIC (Klebsiella pneumoniae [14]): 200 µg/mL (≈ 544 µM); MIC (Escherichia coli [15]): 50 µg/mL (≈ 136 µM)
4 | CC1=C(C(=O)O)N2C(=O)[C@@H](NC(=O)[C@H](N)c3ccccc3)[C@H]2SC1 [CEPHALEXIN ANHYDROUS] | – | – | – | – | > 200 µg/mL | 50 µg/mL (≈ 144 µM) | 100 µg/mL (≈ 288 µM) | > 200 µg/mL | 50 µg/mL (≈ 144 µM) | 50 µg/mL (≈ 144 µM) | 3.13 µg/mL (≈ 9.01 µM) | 200 µg/mL (≈ 576 µM) | > 200 µg/mL | 0.78 µg/mL (≈ 2.25 µM) | > 200 µg/mL | 3.13 µg/mL (≈ 9.01 µM) | > 200 µg/mL | 6.25 µg/mL (≈ 18 µM) | > 200 µg/mL | 3.13 µg/mL (≈ 9.01 µM) | –
5 | CC(C)CC1NC(=O)C(C(=O)N[C@@H](C(=O)N[C@@H]2C(=O)N3[C@@H]2SC(C)(C)[C@@H]3C(=O)O)c2ccccc2)=C1O (some centres not stated) | – | – | – | – | 50 µg/mL (≈ 94.2 µM) | 200 µg/mL (≈ 377 µM) | 6.25 µg/mL (≈ 11.8 µM) | 12.5 µg/mL (≈ 23.6 µM) | 12.5 µg/mL (≈ 23.6 µM) | 50 µg/mL (≈ 94.2 µM) | 3.13 µg/mL (≈ 5.9 µM) | 25 µg/mL (≈ 47.1 µM) | 12.5 µg/mL (≈ 23.6 µM) | 3.13 µg/mL (≈ 5.9 µM) | 6.25 µg/mL (≈ 11.8 µM) | 0.78 µg/mL (≈ 1.47 µM) | 25 µg/mL (≈ 47.1 µM) | 0.39 µg/mL (≈ 0.735 µM) | > 200 µg/mL | 0.39 µg/mL (≈ 0.735 µM) | –
6 | CC(C)CC1NC(=O)C(C(=O)NCCC(=O)N[C@@H](C(=O)N[C@@H]2C(=O)N3C(C(=O)O)=C(Cl)CS[C@H]23)c2ccccc2)=C1O (some centres not stated) | – | – | – | – | 50 µg/mL (≈ 80.6 µM) | 50 µg/mL (≈ 80.6 µM) | 12.5 µg/mL (≈ 20.2 µM) | > 200 µg/mL | 1.56 µg/mL (≈ 2.52 µM) | 12.5 µg/mL (≈ 20.2 µM) | 12.5 µg/mL (≈ 20.2 µM) | 100 µg/mL (≈ 161 µM) | > 200 µg/mL | 0.78 µg/mL (≈ 1.26 µM) | > 200 µg/mL | 0.78 µg/mL (≈ 1.26 µM) | 25 µg/mL (≈ 40.3 µM) | 0.39 µg/mL (≈ 0.629 µM) | > 200 µg/mL | 1.56 µg/mL (≈ 2.52 µM) | –
7 | CC1=C(C(=O)O)N2C(=O)[C@@H](NC(=O)[C@H](NC(=O)C3=C(O)C(CC(C)C)NC3=O)c3ccccc3)[C@H]2SC1 (some centres not stated) | – | – | – | – | 100 µg/mL (≈ 189 µM) | > 200 µg/mL | 100 µg/mL (≈ 189 µM) | > 200 µg/mL | 100 µg/mL (≈ 189 µM) | > 200 µg/mL | 200 µg/mL (≈ 378 µM) | 200 µg/mL (≈ 378 µM) | > 200 µg/mL | 25 µg/mL (≈ 47.3 µM) | 100 µg/mL (≈ 189 µM) | 12.5 µg/mL (≈ 23.6 µM) | 100 µg/mL (≈ 189 µM) | 100 µg/mL (≈ 189 µM) | > 200 µg/mL | 3.13 µg/mL (≈ 5.92 µM) | –
